Laboratory results published in patent publication US20150050301A1, “Contiguous Overlapping Peptides for Treatment of House Dust Mites Allergy” (ANERGIS S.A., priority 2013, published 2015).
Read-outs that look alike come from different tables or passages of the source. Residues, ends and D or L forms follow the SMILES beside them. No end group written: not given here.

B1: SQHGCHGDTIPRGIEYIQHNGVVQESYYRYVAREQSCRRPNAQRFGISNYCQIYPPNVNKIREALAQTHSAIAVIIGIKDLDAFRH (peptide)
peptide: SQHGCHGDTIPRGIEYIQHNGVVQESYYRYVAREQSCRRPNAQRFGISNYCQIYPPNVNKIREALAQTHSAIAVIIGIKDLDAFRH
B2: TNACSINGNAPAEIDLRQMRTVTPIRMQGGCGSCWAFSGVAATESAYLAYRNQSLDLAEQELVDCASQHGCHGDTIPRGIE (peptide, listed as Dermatophagoides pteronyssinus)
chain: TNACSINGNAPAEIDLRQMRTVTPIRMQGGCGSCWAFSGVAATESAYLAYRNQSLDLAEQELVDCASQHGCHGDTIPRGIE
notes: Der p 1 contiguous overlapping peptide, 81AA

Key:
[1] = Solubility Characteristics of COPs; type: physicochemical
Procedure: All COPs were synthesized by solid phase fmoc chemistry at research scale to allow determination of IgE binding. […] Peptides were resuspended either in water at 2 mg/ml or at 10 to 20 mg per ml in DMSO (see Table 1) and frozen in aliquots.

[2] = tested on: IgE of sera of house dust mite allergic patients binding to nDer p 1; experiment: Competition ELISA on Der p 1 coated plates; parameters: species or system human; settings: for effect of denaturing salts on IgE binding (Der p 1 competition ELISA): denaturing salts incl. guanidinium chloride or urea, 30 min pre-incubation with 1M guanidinium chloride; for IgE binding in competition ELISA (Der p 1): sera from patients allergic to house dust mites, COPs 10^−5 to 10^−10 M
Procedure: Purified Der p 1 or Der p 2 at 1.0 μg/ml were coated overnight on 96-well Nunc Maxisorp® immunoplates (Thermo Fisher Scientific Inc., Wohlen, Switzerland). After blocking with 1% BSA, either twenty-fold, thirty-fold or forty-fold up to 200-fold dilutions of patient serum were added depending on specific IgE content. […] Sera of allergic patients were obtained from US and Europe (PlasmaLab International, Everett, Wash., USA and Biomnis, Lyon, France) respectively) selected for positive CAP for D. pteronyssinus and clear signal over background and used to test for competition with the peptides. Serial dilutions of each set of COPs, namely for Der p 1 Set A, B, C or D and for Der p 2 mixes D, E or F at concentrations ranging from 10^−5 to 10^−10 M were pre-incubated with selected serums for 15 min. on ice.

Molecule | Conc. ([1]; Solvent H2O) | Conc. [1] | further results
CC[C@H](C)[C@H](NC(=O)CNC(=O)[C@H](Cc1ccccc1)NC(=O)[C@H](CCCNC(=N)N)NC(=O)[C@H](CCC(N)=O)NC(=O)[C@H](C)NC(=O)[C@H](CC(N)=O)NC(=O)[C@@H]1CCCN1C(=O)[C@H](CCCNC(=N)N)NC(=O)[C@H](CCCNC(=N)N)NC(=O)[C@H](CS)NC(=O)[C@H](CO)NC(=O)[C@H](CCC(N)=O)NC(=O)[C@H](CCC(=O)O)NC(=O)[C@H](CCCNC(=N)N)NC(=O)[C@H](C)N)C(=O)N[C@@H](CO)C(=O)N[C@@H](CC(N)=O)C(=O)N[C@@H](Cc1ccc(O)cc1)C(=O)N[C@@H](CS)C(=O)N[C@@H](CCC(N)=O)C(=O)N[C@H](C(=O)N[C@@H](Cc1ccc(O)cc1)C(=O)N1CCC[C@H]1C(=O)N1CCC[C@H]1C(=O)N[C@@H](CC(N)=O)C(=O)N[C@H](C(=O)N[C@@H](CC(N)=O)C(=O)N[C@@H](CCCCN)C(=O)N[C@H](C(=O)N[C@@H](CCCNC(=N)N)C(=O)N[C@@H](CCC(=O)O)C(=O)O)[C@@H](C)CC)C(C)C)[C@@H](C)CC [AllerDM1.5a] (H-AREQSCRRPNAQRFGISNYCQIYPPNVNKIRE-OH; N-terminus and C-terminus assumed) | 4700 µg/mL |  | solubility in words [1]: solubility in water
CC[C@H](C)[C@H](NC(=O)CNC(=O)[C@H](Cc1ccccc1)NC(=O)[C@H](CCCNC(=N)N)NC(=O)[C@H](CCC(N)=O)NC(=O)[C@H](C)NC(=O)[C@H](CC(N)=O)NC(=O)[C@@H]1CCCN1C(=O)[C@H](CCCNC(=N)N)NC(=O)[C@H](CCCNC(=N)N)NC(=O)[C@H](CS)NC(=O)[C@H](CO)NC(=O)[C@H](CCC(N)=O)NC(=O)[C@H](CCC(=O)O)NC(=O)[C@H](CCCNC(=N)N)NC(=O)[C@H](C)NC(=O)[C@@H](NC(=O)[C@H](Cc1ccc(O)cc1)NC(=O)[C@@H](N)CCCNC(=N)N)C(C)C)C(=O)N[C@@H](CO)C(=O)N[C@@H](CC(N)=O)C(=O)N[C@@H](Cc1ccc(O)cc1)C(=O)N[C@@H](CS)C(=O)N[C@@H](CCC(N)=O)C(=O)N[C@H](C(=O)N[C@@H](Cc1ccc(O)cc1)C(=O)N1CCC[C@H]1C(=O)N1CCC[C@H]1C(=O)N[C@@H](CC(N)=O)C(=O)N[C@H](C(=O)N[C@@H](CC(N)=O)C(=O)N[C@@H](CCCCN)C(=O)N[C@H](C(=O)N[C@@H](CCCNC(=N)N)C(=O)N[C@@H](CCC(=O)O)C(=O)O)[C@@H](C)CC)C(C)C)[C@@H](C)CC [AllerDM1.54] (H-RYVAREQSCRRPNAQRFGISNYCQIYPPNVNKIRE-OH; N-terminus and C-terminus assumed) | 2000 µg/mL |  | solubility in words [1]: solubility in water
CC[C@H](C)[C@H](NC(=O)[C@H](CCC(=O)O)NC(=O)[C@H](Cc1c[nH]cn1)NC(=O)[C@H](CC(N)=O)NC(=O)[C@H](C)NC(=O)[C@H](CS)NC(=O)[C@H](CC(=O)O)NC(=O)[C@H](CCCCN)NC(=O)[C@@H](NC(=O)[C@H](CC(=O)O)NC(=O)[C@@H](NC(=O)[C@H](CCC(N)=O)NC(=O)[C@@H](N)CC(=O)O)C(C)C)C(C)C)C(=O)N[C@@H](CCCCN)C(=O)N[C@@H](CCCCN)C(=O)N[C@H](C(=O)N[C@@H](CC(C)C)C(=O)N[C@H](C(=O)N1CCC[C@H]1C(=O)NCC(=O)N[C@@H](CS)C(=O)N[C@@H](Cc1c[nH]cn1)C(=O)NCC(=O)N[C@@H](CO)C(=O)N[C@@H](CCC(=O)O)C(=O)O)C(C)C)C(C)C [AllerDM2.3] (H-DQVDVKDCANHEIKKVLVPGCHGSE-OH; N-terminus and C-terminus assumed) | 3000 µg/mL |  | 
CC[C@H](C)[C@H](NC(=O)[C@H](CCC(=O)O)NC(=O)[C@H](Cc1c[nH]cn1)NC(=O)[C@H](CC(N)=O)NC(=O)[C@H](C)NC(=O)[C@H](CS)NC(=O)[C@H](CC(=O)O)NC(=O)[C@H](CCCCN)NC(=O)[C@@H](NC(=O)[C@H](CC(=O)O)NC(=O)[C@@H](NC(=O)[C@H](CCC(N)=O)NC(=O)[C@@H](N)CC(=O)O)C(C)C)C(C)C)C(=O)N[C@@H](CCCCN)C(=O)N[C@@H](CCCCN)C(=O)N[C@H](C(=O)N[C@@H](CC(C)C)C(=O)N[C@H](C(=O)N1CCC[C@H]1C(=O)NCC(=O)N[C@@H](CS)C(=O)N[C@@H](Cc1c[nH]cn1)C(=O)NCC(=O)N[C@@H](CO)C(=O)N[C@@H](CCC(=O)O)C(=O)N1CCC[C@H]1C(=O)N[C@@H](CS)C(=O)N[C@H](C(=O)N[C@H](C(=O)N[C@@H](Cc1c[nH]cn1)C(=O)N[C@@H](CCCNC(=N)N)C(=O)O)[C@@H](C)CC)[C@@H](C)CC)C(C)C)C(C)C [AllerDM2.6] (H-DQVDVKDCANHEIKKVLVPGCHGSEPCIIHR-OH; N-terminus and C-terminus assumed) | 3000 µg/mL |  | 
ASQHGCHGDTIPRGIEYIQHNGVVQESYYRYVAREQS [AllerDM1.53] | 4000 µg/mL |  | solubility in words [1]: solubility in water
ASQHGCHGDTIPRGIEYIQHNGVVQESYYRYVAREQSCRRPNAQRFGISNYCQIYPPNVNKIRE [AllerDM1.52] |  | 2300 µg/mL | effect of denaturing salts on IgE binding (Der p 1 competition ELISA) [2]: strongly diminished IgE binding; IgE binding in competition ELISA (Der p 1) [2]: still bound IgE; solubility in words [1]: solubility in water
HGSEPCIIHRGKPFQLEALFEANQNSKTAKIEIKASIDGLEVDVPGIDPNACHYMK (cysteines drawn unpaired) [AllerDM2.4] |  | 4200 µg/mL | 
HYMKCPLVKGQQYDIKYTWNVPKIAPKSENVVVTVKVLGDNGVLACAIATHAKIRD (cysteines drawn unpaired) [AllerDM2.5] | 1500 µg/mL |  | 
KVLGDNGVLACAIATHAKIRD [AllerDM2.9] | 1000 µg/mL |  | 
KYTWNVPKIAPKSENVVVTVKVLGDNGVLACAIATHAKIRD [AllerDM2.8] | 3500 µg/mL |  | 
LAEQELVDCASQHGCHGDTIPRGIEYIQHNGVVQESYYRYVAREQSCRRPNAQRFGISNYCQIYPPNVNKIRE [AllerDM1.5] |  | 1700 µg/mL | IgE binding in competition ELISA (Der p 1) [2]: responsible for the reactivity; solubility in words [1]: solubility in water
PNVNKIREALAQTHSAIAVIIGIKDLDAFRHYDGR [AllerDM1.63] | 2000 µg/mL |  | 
PNVNKIREALAQTHSAIAVIIGIKDLDAFRHYDGRTIIQRDNGYQPNYHAVNIVGYSNAQGVD [AllerDM1.62] |  | 2500 µg/mL | effect of denaturing salts on IgE binding (Der p 1 competition ELISA) [2]: strongly diminished IgE binding; IgE binding in competition ELISA (Der p 1) [2]: residual IgE binding
PNVNKIREALAQTHSAIAVIIGIKDLDAFRHYDGRTIIQRDNGYQPNYHAVNIVGYSNAQGVDYWIVRNSWDT [AllerDM1.6] |  | 800 µg/mL | IgE binding in competition ELISA (Der p 1) [2]: responsible for the reactivity
RHYDGRTIIQRDNGYQPNYHAVNIVGYSNAQGVD [AllerDM1.64] | 4000 µg/mL |  | 
SIDGLEVDVPGIDPNACHYMKCPLVKGQQYDIKYTWNVPKIAPKSENVVVTVKVLGD (cysteines drawn unpaired) [AllerDM2.10] |  |  | Conc. ([1]; H2O after acidification with HCl and neutralization with NaOH): 2000 µg/mL
B1 |  | 2000 µg/mL | IgE binding in competition ELISA (Der p 1) [2]: Residual IgE binding was observed
B2 |  |  | Conc. ([1]; H2O after addition of HCl and NaOH and citrate buffer pH5.5): 1000 µg/mL
